The record followed here is ChEMBL document CHEMBL1201862, “PubChem BioAssay data set” (2004).

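All cell lines were grown in 96-well plates and treated with compound for 48 hours. Here, GI50 denotes the concentration required for 50% inhibition of growth.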 Active and inactive are the calls of the source. Cut-off read from the data, not from the text of the source: active = GI50 up to about 1.1 µM and inactive = higher.

Holding throughout (assay): NCI-60 cell line screen, 48 h
Assay [1] relates to HCT-15.
Assay [2] has as its system HL-60.
The subject of assay [3] is M14.
The subject of assay [4] is SK-MEL-28.
For assay [5], the system named is HCT-116.
Assay [6] relates to RPMI-8226.
The test system of assay [7] is NCI-H460.
Assay [8] concerns CCRF-CEM.
The test system of assay [9] is BT-549.
Assay [10] has as its system PC-3.
Assay [11] relates to HCC 2998.
Assay [12] concerns NCI-H23.
The test system of assay [13] is OVCAR-5.
Assay [14] deals with UO-31.
The test system of assay [15] is HOP-62.
Assay [16] relates to SK-MEL-2.
The test system of assay [17] is T47D.
The test system of assay [18] is SN12C.
For assay [19], the system named is MDA-MB-231.
Assay [20] relates to U-251.

On to `O=C(Cc1ccc(O)c(O)c1)NCc1c[nH]c2ccccc12`, for which the GI50 in assay [1] was 61.1 µM; in [2], 27 µM (inactive); in [3], 35.5 µM (inactive); in [4] it was 83.6 µM (inactive); in assay [5], 32.4 µM (inactive); in assay [6] it was 18.1 µM (inactive). Also, the GI50 was 40.6 µM (inactive) in assay [7]; 6.95 µM (inactive) in assay [8]; 43.9 µM (inactive) in assay [9]; 47.1 µM (inactive) in assay [10]; 62.2 µM (inactive) in assay [11]; 39.1 µM (inactive) in [12]. Further, the GI50 in assay [13] was > 100 µM (inactive); in assay [14], 42.3 µM (inactive); in assay [15], 17.8 µM (inactive); in assay [16], > 100 µM (inactive); in assay [17], > 100 µM (inactive).
Consider `Cc1cc(S(=O)(=O)N2CCNNC2=O)c(S)cc1Cl`, for which the GI50 was 56.5 µM in assay [1]; 39.7 µM (inactive) in assay [2]; 41.6 µM (inactive) in assay [3]; 20 µM (inactive) in assay [4]; 71.4 µM (inactive) in assay [6]; > 100 µM (inactive) in [7]. The GI50 in assay [8] is 37 µM (inactive); in assay [9] it was 20.8 µM (inactive); in [10] it was > 100 µM (inactive); in assay [18] it was > 100 µM (inactive); in [19] it was 23.8 µM (inactive); in assay [20] it was > 100 µM (inactive). Besides, the GI50 in assay [11], in assay [13], in [14] and in assay [16] was > 100 µM (inactive) each time.
For `COc1ccc(C2c3cc4c(c(OC)c3CC3OCC(=O)C32)OCO4)cc1OC` (stereo unspecified), the GI50 in assay [1] was 0.0417 µM; in assay [2], < 0.01 µM (active); in [3], 0.0482 µM (active); in assay [4], 31.9 µM (inactive); in assay [5], 0.0516 µM (active); in assay [6], 0.0501 µM (active). The GI50 in assay [7] is 0.0625 µM (active); in [8] it was 0.0371 µM (active); in [9], 0.0914 µM (active); in [10] it was 0.0619 µM (active); in [18], < 0.01 µM (active); in assay [19], 0.209 µM (active). Also, the GI50 was 0.0504 µM (active) in [20]; 0.129 µM (active) in assay [11]; 0.0365 µM (active) in assay [12]; 0.153 µM (active) in [13]; 0.074 µM (active) in assay [14]; 0.78 µM (active) in assay [16].
On to `Cn1c(=O)sc2cc(C(=S)N3CCC(Cc4ccccc4)CC3)ccc21`, for which the GI50 was 99.5 µM in assay [1]; 22.5 µM (inactive) in assay [2]; 33.3 µM (inactive) in assay [3]; 46.6 µM (inactive) in [4]; 45.9 µM (inactive) in assay [5]; 9.89 µM (inactive) in assay [6]. Moreover, the GI50 in assay [7] was 27.8 µM (inactive); in assay [8] it was 25.2 µM (inactive); in assay [9], 30.3 µM (inactive); in assay [10], 37.9 µM (inactive); in assay [18] it was > 100 µM (inactive); in assay [19] it was > 100 µM (inactive). Besides, the GI50 in assay [20] was 16.2 µM (inactive); in assay [12] it was 44.7 µM (inactive); in [13], > 100 µM (inactive); in [15], > 100 µM (inactive); in assay [16], > 100 µM (inactive).
As to `c1ccc(C/C(=N\Nc2nc3ccccc3o2)c2ccccn2)cc1`, the GI50 in assay [1] was 0.0252 µM; in assay [2], 0.0698 µM (active); in assay [3], 0.0382 µM (active); in assay [5], < 0.01 µM (active); in assay [6], 0.0482 µM (active); in [7], 0.0931 µM (active). For the same compound, the GI50 in assay [8] is < 0.0122 µM (active); in [9], 0.342 µM (active); in assay [10] it was < 0.01 µM (active); in [18], 0.0569 µM (active); in assay [19] it was 0.126 µM (active); in assay [20], 0.198 µM (active). For the same compound, the GI50 was < 0.0163 µM (active) in assay [11]; 0.0382 µM (active) in assay [12]; < 0.01 µM (active) in [13]; 0.09 µM (active) in assay [14]; 0.0354 µM (active) in assay [15]; 0.929 µM (active) in assay [16].
